Experimental data published in publication PMC8395767, “Worsening of the Toxic Effects of (±)Cis-4,4′-DMAR Following Its Co-Administration with (±)Trans-4,4′-DMAR: Neuro-Behavioural, Physiological, Immunohistochemical and Metabolic Studies in Mice” (International Journal of Molecular Sciences, 2021).
“And” between values parts separate entries of the source, which are not always exact repeats. Equal values may be shown once. Marks after values point to notes of the source that are not given here.

What was measured:
[1] = test system: mice; assay: Core temperature (rectal probe), hyperthermia; assay type: in vivo
Experimental: The effects of (±)cis-4,4′-DMAR, (±)trans-4,4′-DMAR and their co-administration were investigated by a protocol widely used in studies of “safety pharmacology” for the preclinical characterization of new molecules in rodents. This protocol includes a series of observational behavioural tests carried out in a consecutive manner that monitor the animal responses up to 5 h after compound injections. In the present study, we reported the observation of physiological (sweating, salivation, core temperature) and neuro-behavioural (detection of psychomotor agitation, spontaneous and stimulated aggressiveness, convulsions) changes occurring in mice after injection of (±)cis-4,4′-DMAR, (±)trans-4,4′-DMAR and their co-administration. Before pharmacological treatment the mouse was placed on a square plate (30 cm× 30 cm) raised from the ground (20 cm) and left free to move on the plate for 10 min (habituation period). The animal was then injected with the vehicle, substances alone ((±)cis-4,4′-DMAR or (±)trans-4,4′-DMAR) or in cis + trans co-administration and placed on the plate. From this moment, the recording time of the physiological and neuro-behavioural responses started, and these were detected in 5-min sessions.
After the first 5 min, the animal was removed from the plate; the body core temperature was then measured, and the aggression tests were performed. The 5-min observation period was repeated at 15–30–60–90–120–180–240–300. Psychomotor agitation in the mouse was not simply related to an increase in spontaneous locomotion itself, but by an “unusual hyperactivity” which was characterised by rapid and sudden horizontal displacements in all directions, sustained turning behaviour, involuntary falls from the high plate during the evaluation of the tests, stereotyped movements and rearing activity. Mouse sweating and salivation were reported only if present or not. The core temperature was determined using a probe (1 mm diameter) that was gently inserted after lubrication with liquid Vaseline into the rectum of the mouse (to about 2 cm) and left in position until the temperature stabilised (about 10 s). The probe was connected to a digital thermometer. Spontaneous aggressive response was measured based on the number of times a mouse bit a grey cloth put in front of its snout. During the test, each mouse was free to move within the cage. In the case of stimulated aggressiveness, each mouse was manually restrained and held in a supine position following which an object was brought near the mouth. For both spontaneous and stimulated aggressive behaviour tests, a grey cloth was placed in front of the nose of each mouse 10 consecutive times (score 0/10 not aggressive, score 10/10 very aggressive). Convulsions were defined as a loss of righting reflexes for at least 5 s, combined with the presence of body tremors and clonic or tonic limb movements. Deaths caused by 4-4’-DMAR injection occurring during the observation period (5 h) were also reported as frequency (%) and time of death (min). Experiments were conducted inside the LARP (Centralised Preclinical Research Laboratory, University of Ferrara, Ferrara, Italy) in a thermo-stated (temperature 20–22 °C, humidity about 45–55%) and light controlled (about 150 lux) room, in which there was a background noise of about 40 ± 4 dB. The experiments, conducted in blind by trained observers working together in pairs, were videotaped and eventually analysed off-line by a different trained operator. The experiments were performed between 8:30 a.m. and 2:00 p.m.
(§1) Sweating and salivation were expressed as frequency (e.g., % of animals that developed symptoms); psychomotor agitation was expressed as frequency (% of animals) and duration (total time in mins). Core temperature values were expressed as the difference between control temperature (before injection) and temperature following drug administration (Δ°C). […]

[2] = test system: Smac/DIABLO; assay: Immunohistochemistry, frontal cortex: Smac/DIABLO; assay type: in vivo, mice
Source text: (§2) Following the acute death or the sacrifice of the animals (after 5-h observation period by dislocation of the spine), brains were taken. These were fixed in 4% buffered formalin and then sampled and incorporated into the paraffin (Leica ASP300 processor, Histoline TEC2900 incorporator; Leica Microsystems Srl, Buccinasco, Milano, Italy). Subsequently, the cut (performed with the Leica HistoCore autocut microtome; Leica Microsystems Srl, Buccinasco, Milano, Italy) was designed to create sections with a thickness of 5 µm for each sample.
(§3) On 5-µm-thick paraffined […] sections, we evaluated the expression of a panel of markers: heat shock proteins (HSP27, HSP70, HSP90), SMAC/DIABLO, NF-kB, iNOS, NOX-2, NT, 8-OHDG.
We used a detection system composed of a biotinylated secondary antibody and HRP-conjugated streptavidin (4plus HRP Universal Detection, Biocare Medical). 3′-,3Diaminobenzidine (DAB) and H2O2 (Betazoid DAB Chromogen Kit, Biocare Medical, Concord, CA, USA) were used as chromogen/substrate. […] In the pictures (sections of the frontal cortex; Figure 3, Figure 4 and Figure 5) to evaluate the variation in the expression of markers (Smac, NOX2, iNOS, 8-OHdG, NT, HSP27, HSP70, HSP90) following treatments, the change in intensity of brown colour (staining of the immunohistochemical technique) in the control and treated tissue was measured. Quantification of Smac, NOX2, iNOS, 8-OHdG, NT, HSP27, HSP70 and HSP90 positive-stained areas was performed by the ImageJ software (imagej.nih.gov/ij/ Accessed date 12 May 2020). […] Positivity was expressed as an extension of the stained analysed area.
as §1, with “(Δ°C). Aggressiveness was expressed as frequency (% of animals which become aggressive) and score (number of bites).” for “(Δ°C).”

[3] = test system: NF-kB; assay: Immunohistochemistry, frontal cortex: NF-kB; assay type: in vivo, mice
Source text: as §2, §3
We used a detection system composed of a biotinylated secondary antibody and HRP-conjugated streptavidin (4plus HRP Universal Detection, Biocare Medical). […] In the pictures (sections of the frontal cortex; Figure 3, Figure 4 and Figure 5) to evaluate the variation in the expression of markers (Smac, NOX2, iNOS, 8-OHdG, NT, HSP27, HSP70, HSP90) following treatments, the change in intensity of brown colour (staining of the immunohistochemical technique) in the control and treated tissue was measured. Quantification of Smac, NOX2, iNOS, 8-OHdG, NT, HSP27, HSP70 and HSP90 positive-stained areas was performed by the ImageJ software (imagej.nih.gov/ij/ Accessed date 12 May 2020). […]

[4] = recent pharmacokinetic study; cited from earlier work
[5] = 10 mg/kg i.p., n=4 mice (animals of the urine excretion study)

In the case of `Cc1ccc(C2OC(N)=NC2C)cc1` (stereo not drawn) [cis-4,4’-DMAR, 4-methyl-5-(4-methylphenyl)-4,5-dihydrooxazol-2-amine], the “Hyperthermia Variation (Δ°C)” value ([1]; 0.1 mg/kg i.p., n=6 mice) is reported as −0.18 ± 0.14 Δ°C, the “Hyperthermia Variation (Δ°C)” value ([1]; 1 mg/kg i.p., n=6 mice) is reported as −0.22 ± 0.17 Δ°C and the “Hyperthermia Variation (Δ°C)” value ([1]; 3 mg/kg i.p., n=6 mice) is reported as −0.34 ± 0.22 Δ°C. For the same compound, the “Hyperthermia Variation (Δ°C)” value [1, 5] was −0.21 ± 0.15 Δ°C, the “Hyperthermia Variation (Δ°C)” value ([1]; 10 mg/kg i.p., n=6 mice) was −0.41 ± 0.13 Δ°C and the “Hyperthermia Latency” value ([1]; 30 mg/kg i.p., n=6 mice) was 25 ± 0.25 min. For the same compound, the “Hyperthermia Variation (Δ°C)” value ([1]; 30 mg/kg i.p., n=6 mice) was 1.52 ± 0.11 ^c Δ°C, the “Hyperthermia Variation (Δ°C)” value ([1]; 30 mg/kg i.p., n=6 mice, listed as (±)cis-4,4′-DMAR) was 1.52 ± 0.11 Δ°C and the “Hyperthermia Latency” value ([1]; 60 mg/kg i.p., n=6 mice) was 7.12 ± 0.23 min. For the same compound, the “Hyperthermia Latency (min)” value ([1]; 60 mg/kg i.p., n=6 mice) was 7.12 ± 0.23 ^d min, the “Hyperthermia Variation (Δ°C)” value ([1]; 60 mg/kg i.p., n=6 mice) was 2.22 ± 0.12 ^c Δ°C and 2.22 ± 0.12 Δ°C and the “Hyperthermia Variation (Δ°C)” value ([1]; 60 mg/kg i.p., n=6 mice, listed as (±)cis-4,4′-DMAR) was 2.22 ± 0.12 Δ°C. For the same compound, the Hyperthermia ([1]; lower doses 0.1–10 mg/kg i.p., mice) was “ineffective”, the “Immunoreactivity of Smac/DIABLO in the frontal cortex” value (“Immunoreactivity of Smac/DIABLO” below) ([2]; 30 and 60 mg/kg, vs control) was “increased” and the “Immunoreactivity of Smac/DIABLO” value ([2]; 30 and 60 mg/kg, vs control, listed as (±)cis) was “significant increase”. The “Immunoreactivity of NF-kB in the frontal cortex” value ([3]; 10, 30 and 60 mg/kg, vs control) was “increased” and the “Metabolism and excretion in the mouse urine” value [4] was “metabolised and excreted”.

For `Cc1ccc(C2OC(N)=NC2C)cc1` (stereo not drawn) [trans-4,4’-DMAR, 4-methyl-5-(4-methylphenyl)-4,5-dihydrooxazol-2-amine], the “Hyperthermia Variation (Δ°C)” value [1, 5] was −0.32 ± 0.1 Δ°C, the “Hyperthermia Variation (Δ°C)” value ([1]; 30 mg/kg i.p., n=6 mice) was −0.37 ± 0.13 Δ°C and the “Hyperthermia Variation (Δ°C)” value ([1]; 60 mg/kg i.p., n=6 mice) was −0.35 ± 0.16 Δ°C. For the same compound, the “Immunoreactivity of Smac/DIABLO” value ([2]; 30 mg/kg alone) was “ineffective”, the “Immunoreactivity of NF-kB in the frontal cortex” value ([3]; 30 mg/kg alone) was “ineffective” and the “Metabolism and excretion in the mouse urine” value [4] was “not metabolised”.
